Patent US20060069132A1, “Azolecarboxamide herbicides” (priority 2004, published 2006)

How the values were obtained:
barnyardgrass [1] = experiment: Test A pre-/postemergence herbicide test; format: in vivo, Echinochloa crus-galli
Outline: (§1)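 Seeds sown in sandy loam received a preemergence directed soil spray of compound in non-phytotoxic solvent with surfactant; postemergence plants (2–10 cm, one- to two-leaf stage) were sprayed to runoff at the same time. After ~10 days in greenhouse, injury was rated visually versus untreated controls (0 = no effect, 100 = complete control).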

large crabgrass [2] = experiment: Test A pre-/postemergence herbicide test; format: in vivo, Digitaria sanguinalis
Outline: as §1

giant foxtail [3] = experiment: Test A pre-/postemergence herbicide test; format: in vivo, Setaria faberi
Outline: as §1

morningglory [4] = experiment: Test A pre-/postemergence herbicide test; format: in vivo, Ipomoea spp.
Outline: as §1

redroot pigweed = experiment: Test A pre-/postemergence herbicide test; format: in vivo, Amaranthus retroflexus
Outline: as §1

velvetleaf [5] = experiment: Test A pre-/postemergence herbicide test; format: in vivo, Abutilon theophrasti
Outline: as §1

barnyardgrass [6] = experiment: Test B pre-/postemergence herbicide test; format: in vivo, Echinochloa crus-galli; conditions: for Barnyardgrass plant response rating: postemergence, visual rating, scale 0 (no effect) to 100 (complete control)
Outline: (§2)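 Formulation: non-phytotoxic solvent mix with surfactant. Timing: preemergence on seed and postemergence on 2–18 cm plants, applied concurrently. Readout after 13–15 d greenhouse: visual 0–100 control rating against controls.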

Surinam grass = experiment: Test B pre-/postemergence herbicide test; format: in vivo, Urochloa decumbens; conditions: for Surinam Grass plant response rating: postemergence, visual rating, scale 0 (no effect) to 100 (complete control)
Outline: (§3)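 Seeds were planted and treated preemergence with compounds formulated in a non-phytotoxic solvent mixture containing surfactant, while plants at the 1- to 4-leaf stage (2 to 18 cm) received postemergence sprays. Flooded paddy plants were grown to the 2-leaf stage. After 13 to 15 days in a greenhouse, injury was visually rated 0–100 against untreated controls.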

cocklebur = experiment: Test B pre-/postemergence herbicide test; format: in vivo, Xanthium strumarium; conditions: for Cocklebur plant response rating: postemergence, visual rating, scale 0 (no effect) to 100 (complete control)
Outline: as §2

corn = experiment: Test B pre-/postemergence herbicide test; format: in vivo, Zea mays; conditions: for Corn plant response rating: postemergence, visual rating, scale 0 (no effect) to 100 (complete control)
Outline: as §3

large crabgrass [7] = experiment: Test B pre-/postemergence herbicide test; format: in vivo, Digitaria sanguinalis; conditions: for Crabgrass, Large plant response rating: postemergence, visual rating, scale 0 (no effect) to 100 (complete control)
Outline: as §3

giant foxtail [8] = experiment: Test B pre-/postemergence herbicide test; format: in vivo, Setaria faberi; conditions: for Foxtail, Giant plant response rating: postemergence, visual rating, scale 0 (no effect) to 100 (complete control)
Outline: as §3

lambsquarters = experiment: Test B pre-/postemergence herbicide test; format: in vivo, Chenopodium album; conditions: for Lambsquarters plant response rating: postemergence, visual rating, scale 0 (no effect) to 100 (complete control)
Outline: as §3

morningglory [9] = experiment: Test B pre-/postemergence herbicide test; format: in vivo, Ipomoea coccinea; conditions: for Morningglory plant response rating: postemergence, visual rating, scale 0 (no effect) to 100 (complete control)
Outline: as §2

pigweed = experiment: Test B pre-/postemergence herbicide test; format: in vivo, Amaranthus retroflexus; conditions: for Pigweed plant response rating: postemergence, visual rating, scale 0 (no effect) to 100 (complete control)
Outline: as §3

rice [10] = experiment: Test B pre-/postemergence herbicide test; format: in vivo, Oryza sativa; conditions: preemergence
Outline: as §3

velvetleaf [11] = experiment: Test B pre-/postemergence herbicide test; format: in vivo, Abutilon theophrasti; conditions: for Velvetleaf plant response rating: postemergence, visual rating, scale 0 (no effect) to 100 (complete control)
Outline: as §3

blackgrass = experiment: Test B postemergence herbicide test; format: in vivo, Alopecurus myosuroides; conditions: postemergence, visual rating, scale 0 (no effect) to 100 (complete control)
Outline: (§4)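 Scale 0–100: zero equals no visible effect, 100 complete control, judged by eye relative to controls. Timing: 13 to 15 days in greenhouse post-treatment. Growth stage at spraying: two leaves (paddy) or one to four leaves, 2–18 cm (postemergence).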

wheat = experiment: Test B postemergence herbicide test; format: in vivo, Triticum aestivum; set-up: key to Wheat plant response rating: 0 = no effect, 100 = complete control; conditions: postemergence, visual rating, scale 0 (no effect) to 100 (complete control)
Outline: (§5)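 Read-out: visual comparison with controls, scored 0 to 100, where 100 means complete control and 0 no effect. Formulated chemicals were applied postemergence to plants 2–18 cm tall (1- to 4-leaf), or to flooded-paddy plants at the 2-leaf stage, then held 13 to 15 days under glass.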

wild oat = experiment: Test B postemergence herbicide test; format: in vivo, Avena fatua; conditions: postemergence, visual rating, scale 0 (no effect) to 100 (complete control)
Outline: as §5

rice [12] = experiment: Test B flooded paddy test; format: in vivo, Oryza sativa; conditions: 1000 g ai/ha, visual rating, scale 0 to 100 (0 no effect, 100 complete control), 13 to 15 days
Outline: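 Visual ratings, 0 (no effect) to 100 (complete control), made versus controls after 13–15 d greenhouse. Paddy plants treated at 2-leaf stage; postemergence plants at 1- to 4-leaf stage, 2–18 cm tall.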

[13] = tested on: small flower umbrella sedge; experiment: Test B flooded paddy test; format: in vivo, Cyperus difformis; conditions: 1000 g ai/ha, visual rating, scale 0 to 100 (0 no effect, 100 complete control), 13 to 15 days
Outline: as §4

ducksalad = experiment: Test B flooded paddy test; format: in vivo, Heteranthera limosa; conditions: 1000 g ai/ha, visual rating, scale 0 to 100 (0 no effect, 100 complete control), 13 to 15 days
Outline: as §4

barnyardgrass [14] = experiment: Test B flooded paddy test; format: in vivo, Echinochloa crus-galli; conditions: 1000 g ai/ha, visual rating, scale 0 to 100 (0 no effect, 100 complete control), 13 to 15 days
Outline: as §4

[15] = Postemergence, 500 g ai/ha, 0 to 100 scale, 0 no effect, 100 complete control
[16] = Postemergence, 2000 g ai/ha, 0 to 100 scale, 0 no effect, 100 complete control
[17] = Preemergence, 2000 g ai/ha, visual rating, 0 to 100 scale (0 no effect, 100 complete control)
[18] = preemergence, 500 g ai/ha, visual injury, 0 to 100 scale (0 no effect, 100 complete control)
[19] = 125 g ai/ha, 0 = no effect, 100 = complete control, preemergence
[20] = 500 g ai/ha, visual rating 0-100, 0 no effect, 100 complete control, preemergence

CCOC(=O)c1cccc(NC(=O)c2sc(C(C)(C)C)nc2CC)c1 [Compound 204]
Barnyardgrass plant response rating (barnyardgrass [1]; [15]): 25
Plant response rating, Barnyardgrass (barnyardgrass [1]; [16]): 30
Barnyardgrass plant response rating (barnyardgrass [1]; [17]): 5
Barnyardgrass plant response rating (barnyardgrass [1]; [18]): 0
Crabgrass, Large plant response rating (large crabgrass [2]; [15]): 30
Plant response rating, Crabgrass, Large (large crabgrass [2]; [16]): 30
Crabgrass, Large plant response rating (large crabgrass [2]; [17]): 10
Crabgrass, Large plant response rating (large crabgrass [2]; [18]): 0
Foxtail, Giant plant response rating (giant foxtail [3]; [15]): 25
Plant response rating, Foxtail, Giant (giant foxtail [3]; [16]): 25
Foxtail, Giant plant response rating (giant foxtail [3]; [17]): 10
Foxtail, Giant plant response rating (giant foxtail [3]; [18]): 0
Morningglory plant response rating (morningglory [4]; [15]): 20
Plant response rating, Morningglory (morningglory [4]; [16]): 15
Morningglory plant response rating (morningglory [4]; [17]): 25
Morningglory plant response rating (morningglory [4]; [18]): 10
Pigweed plant response rating (redroot pigweed; [15]): 50
Plant response rating, Pigweed (redroot pigweed; [16]): 60
Pigweed plant response rating (redroot pigweed; [17]): 10
Pigweed plant response rating (redroot pigweed; [18]): 0
Velvetleaf plant response rating (velvetleaf [5]; [15]): 40
Plant response rating, Velvetleaf (velvetleaf [5]; [16]): 60
Velvetleaf plant response rating (velvetleaf [5]; [17]): 25
Velvetleaf plant response rating (velvetleaf [5]; [18]): 5
Barnyardgrass plant response rating (0 to 100 scale) (barnyardgrass [6]; [19]): 0
Plant response rating, Barnyardgrass (barnyardgrass [6]; [20]): 0
Barnyardgrass plant response rating (barnyardgrass [6]; 125 g ai/ha): 10
Barnyardgrass plant response rating (barnyardgrass [6]; 500 g ai/ha): 10
Surinam Grass plant response rating (0 to 100 scale) (Surinam grass; [19]): 0
Plant response rating, Surinam Grass (Surinam grass; [20]): 0
Surinam Grass plant response rating (Surinam grass; 125 g ai/ha): 20
Surinam Grass plant response rating (Surinam grass; 500 g ai/ha): 50
Cocklebur plant response rating (0 to 100 scale) (cocklebur; [19]): 0
Plant response rating, Cocklebur (cocklebur; [20]): 0
Cocklebur plant response rating (cocklebur; 125 g ai/ha): 90
Cocklebur plant response rating (cocklebur; 500 g ai/ha): 90
Corn plant response rating (0 to 100 scale) (corn; [19]): 0
Plant response rating, Corn (corn; [20]): 0
Corn plant response rating (corn; 125 g ai/ha): 20
Corn plant response rating (corn; 500 g ai/ha): 20
Crabgrass, Large plant response rating (0 to 100 scale) (large crabgrass [7]; [19]): 0
Plant response rating, Crabgrass, Large (large crabgrass [7]; [20]): 0
Crabgrass, Large plant response rating (large crabgrass [7]; 125 g ai/ha): 10
Crabgrass, Large plant response rating (large crabgrass [7]; 500 g ai/ha): 10
Foxtail, Giant plant response rating (0 to 100 scale) (giant foxtail [8]; [19]): 0
Plant response rating, Foxtail, Giant (giant foxtail [8]; [20]): 0
Foxtail, Giant plant response rating (giant foxtail [8]; 125 g ai/ha): 10
Foxtail, Giant plant response rating (giant foxtail [8]; 500 g ai/ha): 20
Lambsquarters plant response rating (0 to 100 scale) (lambsquarters; [19]): 0
Plant response rating, Lambsquarters (lambsquarters; [20]): 0
Lambsquarters plant response rating (lambsquarters; 125 g ai/ha): 30
Lambsquarters plant response rating (lambsquarters; 500 g ai/ha): 50
Plant response rating, Morningglory (morningglory [9]; [20]): 10
Morningglory plant response rating (morningglory [9]; 125 g ai/ha): 20
Morningglory plant response rating (morningglory [9]; 500 g ai/ha): 40
Pigweed plant response rating (0 to 100 scale) (pigweed; [19]): 0
Plant response rating, Pigweed (pigweed; [20]): 10
Pigweed plant response rating (pigweed; 125 g ai/ha): 50
Pigweed plant response rating (pigweed; 500 g ai/ha): 70
Rice plant response rating (0 to 100 scale) (rice [10]; 125 g ai/ha, 0 = no effect, 100 = complete control): 0
Plant response rating, Rice (rice [10]; 500 g ai/ha, visual rating 0-100, 0 no effect, 100 complete control): 0
Velvetleaf plant response rating (0 to 100 scale) (velvetleaf [11]; [19]): 0
Plant response rating, Velvetleaf (velvetleaf [11]; [20]): 0
Velvetleaf plant response rating (velvetleaf [11]; 125 g ai/ha): 60
Velvetleaf plant response rating (velvetleaf [11]; 500 g ai/ha): 70
Blackgrass plant response rating (blackgrass; 125 g ai/ha): 20
Blackgrass plant response rating (blackgrass; 500 g ai/ha): 20
Wheat plant response rating (wheat; 125 g ai/ha): 10
Wheat plant response rating (wheat; 500 g ai/ha): 30
Oat, Wild plant response rating (wild oat; 125 g ai/ha): 10
Oat, Wild plant response rating (wild oat; 500 g ai/ha): 20
Rice plant response rating (rice [12]): 30
Sedge, Umbrella plant response rating [13]: 80
Ducksalad plant response rating (ducksalad): 40
Barnyardgrass plant response rating (barnyardgrass [14]): 20
